Measured values taken from US11149046B2, “Antibacterial sideromycins” (Hsiri Therapeutics, Inc., priority 2014, dated 2021).
Values after ≈ are worked out from the molar mass of the structure shown. “Also recorded” adds a separate entry of the source. Where two headings read alike, the source gives them in different places. Values belong to the compound of their own block, whether it stands above or below them.

Experiments:
Pa6 = experiment: MIC determination; type: cell-based, Pseudomonas aeruginosa; settings: Pseudomonas aeruginosa; Table 6; read-out: MIC
Source text: (§1) MIC (minimum inhibition concentration) is given in μM and AD (agar diffusion zones of inhibition are given in mm from Kirby-Bauer Petri dish growth inhibition studies).

Pa4 = experiment: MIC determination; type: cell-based, Pseudomonas aeruginosa; settings: Pseudomonas aeruginosa; Table 6
Source text: (§2) Table 3 that was included in the first Example 4 section provides antibacterial data for the first synthetic sideromycins we prepared and studied. The second Example 4 section elaborated and expanded on that data with inclusion of representative antibacterial data in the text and associated pictures of Petri dish assays. MIC (minimum inhibition concentration) is given in μM and AD (agar diffusion zones of inhibition are given in mm from Kirby-Bauer Petri dish growth inhibition studies).

P. aeruginosa KW799/wt = experiment: MIC determination; type: cell-based, Pseudomonas aeruginosa; settings: read-out: MIC
Source text: as §2

A. baumannii ATCC 17961 = experiment: MIC determination; type: cell-based, Acinetobacter baumannii; settings: read-out: MIC
Source text: as §2

[1] = test system: Pseudomonas aeruginosa 01 (Pa01); experiment: MIC determination; type: cell-based; settings: read-out: MIC
Source text: as §2

[2] = test system: Pa-Da-1304 CF patient isolate; experiment: MIC determination; type: cell-based, Pseudomonas aeruginosa; settings: Pseudomonas aeruginosa; Table 6
Source text: as §1
We obtained a clinical isolate of Pseudomonas from a cystic fibrosis patient.

[3] = test system: Pseudomonas aeruginosa KW799/61; type: cell-based; settings: for AD = agar diffusion inhibition zones: Table 5
Source text: as §1

[4] = test system: Acinetobacter baumannii ATCC 17961; experiment: Agar diffusion (Kirby-Bauer) assay, with and without hydrogel; type: cell-based; settings: for AD = agar diffusion inhibition zones: Table 5, head prints A. baumannii only
Source text: as §2
We investigated whether the sideromycin absorbed in the gel be able to diffuse out of the gel and into the agar to effect antibacterial growth. As a control, the sideromycin alone, without gel, was added in a separate 9 mm well, as usual.
The second question was whether the sideromycin continue to be released and be able to effect bacterial growth inhibition over extended periods. Thus, additional identical agar plates were prepared and stored at 4° C. for 24, 48 and 72 hours to allow diffusion of the sideromycin (control and gel forms) into the agar before allowing the bacteria to grow in an incubator. Then after each time period, the Petri dishes were incubated at 37° C. for 20 hours to promote bacteria growth in the agar. […] The study has been extended to as long as 168 hours (one week) with retention of antibiotic effectiveness.

E. coli DC0 = experiment: Agar diffusion (Kirby-Bauer) assay; type: cell-based; settings: Table 5
Source text: as §2

E. coli DC2 = experiment: Agar diffusion (Kirby-Bauer) assay; type: cell-based; settings: Table 5
Source text: as §2

[5] = test system: Pseudomonas aeruginosa KW799/wt; experiment: Agar diffusion (Kirby-Bauer) assay; type: cell-based
Source text: as §2

[6] = test system: strains of Pseudomonas and Acinetobacter; experiment: Antibacterial activity, general statements; type: cell-based; settings: general statements of the text
Description: Antibiotic activity was determined using agar diffusion assays against representative Gram-negative bacteria, including Pseudomonas aeruginosa (Pa6), and several multidrug resistant forms of Acinetobacter baumannii. Representative results are shown in Table 1 and a corresponding picture of an actual petri dish showing the agar diffusion results (FIG. 4). […].

SMILES: O=C(CCC(=O)N(CCCCNC(=O)c1cccc(O)c1O)CCCNC(=O)c1cccc(O)c1O)NCCCCCN(O)C(=O)CCCC(=O)NC(C(=O)NC1C(=O)N2C(C(=O)O)=C(Cl)CSC12)c1ccccc1 (stereo not drawn) [MG-1-285]
MIC (A. baumannii ATCC 17961): 0.025 µM (≈ 0.027 µg/mL)

SMILES: CC(=O)Oc1cccc(C(=O)NCCCCN(CC(=O)N[C@H](C(=O)N[C@@H]2C(=O)N3C(C(=O)O)=C(Cl)CC[C@H]23)c2ccccc2)C(=O)c2cccc(OC(C)=O)c2OC(C)=O)c1OC(C)=O [YML-1-45cr]
AD = agar diffusion inhibition zones [3]: (AD = 23) mm | zones of inhibition (in words) ([3]; outer membrane permeable mutant, FIG. 9 center panel): significant activity | zones of inhibition (in words) ([4]; Acinetobacter, FIG. 8, 9, 10): zones comparable to or even larger than our first sideromycin, 21; also recorded: impressive zones of inhibition | AD = agar diffusion inhibition zones [4]: (AD = 18) mm | AD = agar diffusion inhibition zones (E. coli DC0): (AD = 31) mm | AD = agar diffusion inhibition zones (E. coli DC2): (AD = 38) mm | AD = agar diffusion inhibition zones ([5]; Table 5): (AD = 18) mm | zones of inhibition (in words) ([5]; wild type Pseudomonas, FIG. 8, 9, 12): sizable zone of inhibition; also recorded: impressive zones of inhibition; also recorded: significant activity

SMILES: O=C(CN(CCCCNC(=O)c1cccc(O)c1O)C(=O)c1cccc(O)c1O)NC(C(=O)NC1C(=O)N2C(C(=O)O)=C(Cl)CSC12)c1ccccc1 (stereo not drawn) [YML-1-109]
MIC (P. aeruginosa KW799/wt; Table 7): 0.05 µM (≈ 0.0384 µg/mL) | antibacterial activity (in words) [6]: comparable to the loracarbef conjugate YML-1-91 | MIC (A. baumannii ATCC 17961; Table 7): 0.05 µM (≈ 0.0384 µg/mL) | MIC ([1]; Table 7): 1.56 µM (≈ 1.2 µg/mL)

SMILES: CC(C)(C)OC(=O)NCCCCCN(O)C(=O)CCC(=O)N[C@@H](C(=O)N[C@@H]1C(=O)N2C1SC(C)(C)[C@@H]2C(=O)O)c1ccccc1 (stereo partly drawn) [YML-I-27]
AD = agar diffusion inhibition zones [3]: (AD = 24) (AD = 24) mm | AD = agar diffusion inhibition zones [4]: (AD = 17) mm | AD = agar diffusion inhibition zones (E. coli DC0): (AD = 0) mm | AD = agar diffusion inhibition zones (E. coli DC2): (AD = 26) mm

Second part, the compound after the results:

MIC (Pa6): > 50 µM | MIC (Pa4): > 50 µM | MIC (P. aeruginosa KW799/wt; Pseudomonas aeruginosa, KW799/WT, Table 6): 1.56 µM (≈ 1.86 µg/mL) | MIC (A. baumannii ATCC 17961; Acinetobacter baumannii, ATCC17961, Table 6, head prints A. baumannii only): 0.2 µM (≈ 0.238 µg/mL) | MIC ([1]; Pseudomonas aeruginosa, Table 6): > 50 µM | MIC [2]: > 50 µM
SMILES: CC(=O)Oc1cccc(C(=O)NCCCCN(CCCNC(=O)c2cccc(OC(C)=O)c2OC(C)=O)C(=O)CCC(=O)N[C@@H](CCCN(O)C(C)=O)C(=O)N[C@@H](C(=O)N[C@@H]2C(=O)N3C(C(=O)O)=C(Cl)CCC23)c2ccccc2)c1OC(C)=O (stereo partly drawn) [MG-1-185]

MIC (Pa6): > 50 µM
SMILES: CC(=O)Oc1cccc(C(=O)NCCCCN(CCCNC(=O)c2cccc(OC(C)=O)c2OC(C)=O)C(=O)CCC(=O)N[C@@H](CCCN(O)C(C)=O)C(=O)N[C@@H](C(=O)N[C@@H]2C(=O)N3C2SC(C)(C)[C@@H]3C(=O)O)c2ccccc2)c1OC(C)=O (stereo partly drawn) [MG-1-186]
